Measurements taken from PubChem BioAssay (NCI).
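Five concentrations, 48 hours, 96-well plates. GI50: concentration for 50% inhibition of growth. The concentration for full growth arrest is given as TGI.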

What was measured:
Assay in all cases: growth of human tumour cells (NCI), 48 h
ACHN renal = test system: ACHN renal
HCT-116 colon = test system: HCT-116 colon
NCI-H23 lung = test system: NCI-H23 lung
OVCAR-4 ovarian = test system: OVCAR-4 ovarian
SN12C renal = test system: SN12C renal
SNB-75 CNS = test system: SNB-75 CNS
SR leukemia = test system: SR leukemia
BT-549 breast = test system: BT-549 breast
DU-145 prostate = test system: DU-145 prostate
T-47D breast = test system: T-47D breast

Row | SMILES | TGI (ACHN renal) [µM] | TGI (HCT-116 colon) [µM] | TGI (NCI-H23 lung) [µM] | TGI (OVCAR-4 ovarian) [µM] | TGI (SN12C renal) [µM] | TGI (SNB-75 CNS) [µM] | TGI (SR leukemia) [µM] | TGI (BT-549 breast) [µM] | TGI (DU-145 prostate) [µM] | TGI (T-47D breast) [µM] | GI50 (ACHN renal) [µM] | GI50 (BT-549 breast) [µM] | GI50 (DU-145 prostate) [µM] | GI50 (NCI-H23 lung) [µM] | GI50 (OVCAR-4 ovarian) [µM] | GI50 (SN12C renal) [µM] | GI50 (SNB-75 CNS) [µM] | GI50 (T-47D breast) [µM] | GI50 (HCT-116 colon) [µM] | GI50 (SR leukemia) [µM]
1 | COC1CCCc2c(OC(C)=O)ccc(OC(C)=O)c21 (stereo not given) | > 100 | > 100 | > 100 | > 100 | > 100 | > 100 | > 100 |  |  |  |  |  |  |  |  |  |  |  |  | 
2 | O=c1[nH]c2nc3ccccc3c(=O)n2nc1Cc1ccccc1 | > 100 | > 100 | > 100 | > 100 | > 100 | > 100 | > 100 |  |  |  |  |  |  |  |  |  |  |  |  | 
3 | N#CN1CC[C@@H]2CC3(CCC2C1)OCCO3 (stereo not given in full) | > 100 | > 100 | > 100 | > 100 | > 100 | > 100 | > 100 |  |  |  |  |  |  |  |  |  |  |  |  | 
4 | Nc1n[n+]([O-])c2ccc(Cl)cc2[n+]1[O-] | > 100 | > 100 | 46.4 |  | > 100 | > 100 | > 100 | 29.2 | > 100 | 99.4 |  |  |  |  |  |  |  |  |  | 
5 | Cc1nc(-n2nc(-c3ccccc3)cc2-c2ccccc2)sc1C(=O)CC(=O)C(=O)Nc1ccc(Cl)c(Cl)c1 | > 100 | > 100 | > 100 | > 100 | > 100 | > 100 | > 100 |  |  |  |  |  |  |  |  |  |  |  |  | 
6 | CC(C)(C)OC(=O)NCCCCCCCCCn1c2c(c3ccccc3c1=O)C(=O)c1ccccc1-2 | > 100 |  | > 100 | > 100 | > 100 | 36.8 |  | > 100 | > 100 | > 100 | 27 | 35.1 | > 100 | 37 | > 100 | 76.8 | 11.2 | 78.9 |  | 
7 | Cc1cccc(NC(=O)c2c(N)[n+]([O-])c3ccccc3[n+]2[O-])c1 | 29.9 | 20.3 | 23.4 | 23.3 | 17 | 30.2 | > 100 |  |  |  |  |  |  |  |  |  |  |  |  | 
8 | O=C(n1c2ccccc2c2n[nH]c(=S)nc21)C(F)(F)F |  | > 100 | > 100 | > 100 | > 100 | > 100 |  |  |  |  |  |  |  |  |  |  |  |  |  | 
9 | O=S(=O)(F)Cc1ccccc1 | > 100 | > 100 | > 100 | > 100 | > 100 | > 100 | > 100 | > 100 | > 100 |  |  |  |  |  |  |  |  |  |  | 
10 | N[C@H]1CCC[C@@H](O)C1O (stereo not given in full) | > 100 | > 100 | > 100 |  | > 100 | > 100 | > 100 | > 100 | > 100 | > 100 |  |  |  |  |  |  |  |  |  | 
11 | O=C1NC(c2ccccc2)(c2ccccc2)C(=O)N1CCCCCCN1C(=O)NC(c2ccccc2)(c2ccccc2)C1=O | > 100 |  | 91.5 | 27.6 | > 100 | 19.6 |  |  |  |  |  |  |  |  |  |  |  |  |  | 
12 | Cc1c(C)c2cc3c(=O)c(CCl)coc3c(C)c2oc1=O | > 100 | > 100 | > 100 |  | > 100 | > 100 |  |  |  |  |  |  |  |  |  |  |  |  |  | 
13 | O=C1c2ccccc2C(=O)N1c1ccc(Cc2ccc(N3C(=O)c4ccccc4C3=O)cc2)cc1 | > 100 | > 100 | > 100 | > 100 | > 100 | > 100 |  | > 100 | > 100 | > 100 |  |  |  |  |  |  |  |  |  | 
14 | CNC(=O)[C@H](Cc1c[nH]c2ccccc12)NC(=O)[C@@H](CC(=O)NO)CC(C)C | > 25 | > 25 | > 25 | > 25 | > 25 | > 25 |  | > 25 | > 25 | > 25 | > 25 | > 25 | > 25 | > 25 | > 25 | > 25 | > 25 | > 25 | > 25 | 
15 | CCN(Cc1ccc(Cl)c(Cl)c1)c1ccc2nc(N)nc(N)c2c1C | 1.78 | 1.51 | 1.49 | 16.1 |  | 2.01 |  | 7.27 | 2 | 2.71 | < 0.01 | 0.296 | 0.0544 | 0.0284 | 1.05 |  | 0.0945 | 0.67 | < 0.01 | 
16 | CC(=O)/C=C1\CC(=O)N(C)c2ccccc2N1 |  | > 100 | > 100 | > 100 | > 100 | 0.953 | > 100 |  |  |  |  |  |  |  |  |  |  |  |  | 
17 | CN(C)CCCNc1ccnc2c([N+](=O)[O-])cccc12 | > 100 | 39.1 | 31.3 | 28.5 | 28.8 |  | 96.4 |  |  |  |  |  |  |  |  |  |  |  |  | 
18 | CC(=O)OC1(Sc2ccccc2)CC2[C@H]3COC(C)(C)O[C@H]3CC[C@@]2(C)CC1=O (stereo not given in full) | > 100 | > 100 | > 100 | > 100 | > 100 | 81.4 | 45.4 |  |  |  |  |  |  |  |  |  |  |  |  | 
19 | CCOC(=O)c1ccc(N=Cc2ccc(N(CCC#N)S(=O)(=O)c3ccccc3)cc2C)cc1 |  | > 100 | > 100 | > 100 | > 100 | > 100 |  |  |  |  |  |  |  |  |  |  |  |  |  | 
20 | O=NNc1ccc(-c2ccccc2)cn1 | 15 | 29.9 | 25.2 | > 70.6 | > 35.1 | 29.3 |  | > 100 | 9.78 | > 77.9 |  |  |  |  |  |  |  |  |  | 
21 | COc1ccc2c(c1OC)C(=O)C2 | > 100 | > 100 | > 100 | > 100 | > 100 | > 100 | > 100 |  |  |  |  |  |  |  |  |  |  |  |  | 
22 | CC(C)(C)c1cc(C2c3cc4c(cc3OC(O)(CO)C2C(=O)O)OCO4)cc(C(C)(C)C)c1O (stereo not given) (tested in a mixture with another compound) | 28.2 | 21.2 | 29.6 | 25.6 | 31 | 22.8 |  |  |  |  |  |  |  |  |  |  |  |  |  | 
23 | COc1ccc2nc3cc(Cl)ccc3c(Sc3ccc(N)cc3)c2c1 | 21.9 | 17.3 | 27.9 | 29.9 | 24 | 23.2 | 11.4 |  |  |  |  |  |  |  |  |  |  |  |  | 
24 | COc1ccc(CCN2CCCn3c2nc2ccccc2c3=O)cc1 | > 100 | > 100 | > 83.9 | > 100 | > 100 |  | > 100 | > 100 | > 64.8 |  | 0.978 | 0.717 | 0.211 | 0.232 | 0.353 | 1.1 |  |  | 0.0493 | 0.0448
